# According to US20230212129A1, “QUINAZOLINE DERIVATIVES USEFUL AS SELECTIVE HDAC6 INHIBITORS” (AnnJi Pharmaceutical Co., Ltd., priority 2020, published 2023):
# Tests used:
# HDAC1 = target: T1, HDAC1 (Homo sapiens, UniProt Q13547); test: HDAC1 activity, acetylated-AMC-labeled peptide substrate; format: biochemical
# T1 construct: GST (C); host or cells: baculovirus expression system, Sf9 insect cells (SP9 [sic])
# Procedure: (§1) The activities of HDAC 1 and 6 were measured by using an acetylated-AMC-labeled peptide substrate, a fluorogenic peptide from p53 residues 379-382 (RHIKKAc). The proteins involved in the assay are as the followings (1) Human HIDAC1 (Genflank Accession No. NM_004964): Full length with C-terminal GST tag, MW=79.9 kDa, expressed by baculovirus expression system in SP9 cells; and (2) Human HIDAC6 (Genflank Accession No. BC069243): Full length with N-terminal GST tag, MW=159 kDa, expressed by baculovirus expression system in Sf9 cells.
# HDAC6 = target: T2, HDAC6 (Homo sapiens, UniProt Q9UBN7); test: HDAC6 activity, acetylated-AMC-labeled peptide substrate; format: biochemical
# T2 construct: GST (N); host or cells: baculovirus expression system, Sf9 insect cells
# T2 sequence (Q9UBN7 1-1215): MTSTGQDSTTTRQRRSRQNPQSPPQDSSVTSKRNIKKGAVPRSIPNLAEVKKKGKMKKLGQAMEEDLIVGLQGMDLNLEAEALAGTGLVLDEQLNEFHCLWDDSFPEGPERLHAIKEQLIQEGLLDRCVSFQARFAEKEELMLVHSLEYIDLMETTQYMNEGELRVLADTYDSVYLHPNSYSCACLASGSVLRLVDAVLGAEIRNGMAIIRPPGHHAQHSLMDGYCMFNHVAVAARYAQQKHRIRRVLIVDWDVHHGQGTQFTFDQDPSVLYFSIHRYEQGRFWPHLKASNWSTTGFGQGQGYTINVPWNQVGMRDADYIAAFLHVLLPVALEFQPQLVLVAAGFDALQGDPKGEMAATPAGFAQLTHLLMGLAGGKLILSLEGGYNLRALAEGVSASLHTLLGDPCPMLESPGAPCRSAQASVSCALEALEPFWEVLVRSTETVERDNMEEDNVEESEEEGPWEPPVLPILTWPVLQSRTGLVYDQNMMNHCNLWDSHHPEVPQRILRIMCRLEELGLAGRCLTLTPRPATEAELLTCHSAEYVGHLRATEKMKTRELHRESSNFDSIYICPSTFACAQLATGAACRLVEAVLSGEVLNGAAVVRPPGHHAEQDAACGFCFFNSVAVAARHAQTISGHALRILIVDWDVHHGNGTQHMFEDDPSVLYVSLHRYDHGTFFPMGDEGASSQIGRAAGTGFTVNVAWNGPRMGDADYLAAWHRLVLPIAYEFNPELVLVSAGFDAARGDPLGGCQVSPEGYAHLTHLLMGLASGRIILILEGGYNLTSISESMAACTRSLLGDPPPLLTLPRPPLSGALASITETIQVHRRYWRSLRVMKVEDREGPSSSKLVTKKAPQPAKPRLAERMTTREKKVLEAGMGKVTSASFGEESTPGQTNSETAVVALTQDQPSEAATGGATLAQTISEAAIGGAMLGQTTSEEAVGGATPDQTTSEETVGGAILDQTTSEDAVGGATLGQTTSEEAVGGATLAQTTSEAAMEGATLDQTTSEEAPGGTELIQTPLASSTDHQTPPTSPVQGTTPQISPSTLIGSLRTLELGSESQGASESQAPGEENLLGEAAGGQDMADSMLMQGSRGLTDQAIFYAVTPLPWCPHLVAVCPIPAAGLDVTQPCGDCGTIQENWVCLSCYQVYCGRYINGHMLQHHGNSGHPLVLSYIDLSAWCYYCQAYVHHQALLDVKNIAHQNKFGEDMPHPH
# Procedure: as §1
# [1] = Oral pharmacokinetics (Table II); set-up: AUC: concentration or dose not given beside the values; settings: in vivo
# [2] = tested on: dorsal root ganglion (DRG) cells; test: DRG neurite outgrowth after paclitaxel-induced damage; format: cell-based, C57BL/6J mice; settings: 0.1 μM and 1 μM, 24 hours prior to 24-hour 0.1 μM paclitaxel; FIG. 1
# Procedure: (§2) To investigate the effect of HDAC6 inhibitors in neuron protection and neuron regeneration, the recovery of dorsal root ganglion (DRG) cells post-paclitaxel injury was tested. Dorsal root ganglion was extracted from 7 week-old female C57BL/6J mice and incubated with HDAC6 inhibitors (compounds COMPOUND 33, COMPOUND 34, or COMPOUND 2) at the concentrations of 0.1 μM and 1 μM, or 100 ng/ml of BDNF, a neuronal growth factor (positive control), for 24 hours prior to a 24-hour incubation of 0.1 μM paclitaxel.
# The neurite was stained by pIII-tubulin.
# [3] = tested on: acetylated α-tubulin (Ac-α-tub); test: Western blot of acetylated α-tubulin in primary DRG cells; format: cell-based, C57BL/6J mice; settings: 48 hours of treatment, FIG. 2
# Procedure: as §2
# [4] = tested on: bleomycin-induced pulmonary fibrosis; test: Bleomycin-induced pulmonary fibrosis model, lung histology (H&E); format: in vivo, mice
# Procedure: (§3) The activities of compounds COMPOUND 2 and COMPOUND 33 in preventing and/or treating pulmonary fibrosis were examined using a bleomycin-induced pulmonary fibrosis model, a model that involves deactivated bleomycin hydrolase, elevated oxidative stress, and increased inflammatory cytokines. In the prevention model, mice were administered bleomycin intratracheally an hour in prior to the first oral administration of 30 mg/kg testing compounds. The treatment continued for 21 consecutive days, and mice were sacrificed to examine histological changes of lung tissues were analyzed by H&E staining to evaluate the degree of lung fibrosis. Additionally, the HDAC6 inhibitors, COMPOUND 2 and COMPOUND 33, were tested for their effect in aiding animal recovery from lung injury and pulmonary fibrosis post injury.
# IL-6 = IL-6 in bronchoalveolar lavage fluid, bleomycin model; format: in vivo, mice; settings: prevention model, 30 mg/kg oral, 21 days; FIG. 6
# Procedure: as §3, with “fibrosis.” for “fibrosis. Additionally, the HDAC6 inhibitors, COMPOUND 2 and COMPOUND 33, were tested for their effect in aiding animal recovery from lung injury and pulmonary fibrosis post injury.”
# [5] = tested on: BioMAP Fibrosis panel (REMyoF, SAEMyoF, MyoF systems); test: BioMAP Fibrosis panel cytokine/biomarker profiles; format: cell-based
# Procedure: The HDAC6 inhibitor compounds were tested in a commercially available platform, BioMAP, for the cytokine profiles in related to tissue injuries. The BioMAP Fibrosis panel included 3 systems stimulated to model TGFβ and TNFα driven myofibroblast differentiation during chronic inflammation and wound healing in different tissue settings. Fibrotic disease of the kidney associated with end-stage renal failure was captured in the REMyoF system consisting of a co-culture of renal proximal tubule epithelial cells and adult fibroblasts. Interstitial lung diseases, including pulmonary fibrotic diseases such as idiopathic pulmonary fibrosis (IPF), was modeled by co-culturing small airway epithelial cells and adult fibroblasts in the SAEMyoF system. Both co-culture systems modeled the paracrine interaction between myofibroblasts and the proximally located epithelial cells, while the impact on fibroblasts alone was interrogated using the monoculture MyoF system. A signature BioMAP profile that is reflective of the changes in protein biomarker readouts within an individual system was generated for each testing compounds. Biomarker readouts selected for therapeutic and biological relevance were predictive for disease outcomes or specific drug effects, and was validated using agents with known clinical efficacy. Each readout was measured quantitatively by immune-based methods that detect protein (e.g., ELISA).
# T1 sequence (Q13547 whole entry): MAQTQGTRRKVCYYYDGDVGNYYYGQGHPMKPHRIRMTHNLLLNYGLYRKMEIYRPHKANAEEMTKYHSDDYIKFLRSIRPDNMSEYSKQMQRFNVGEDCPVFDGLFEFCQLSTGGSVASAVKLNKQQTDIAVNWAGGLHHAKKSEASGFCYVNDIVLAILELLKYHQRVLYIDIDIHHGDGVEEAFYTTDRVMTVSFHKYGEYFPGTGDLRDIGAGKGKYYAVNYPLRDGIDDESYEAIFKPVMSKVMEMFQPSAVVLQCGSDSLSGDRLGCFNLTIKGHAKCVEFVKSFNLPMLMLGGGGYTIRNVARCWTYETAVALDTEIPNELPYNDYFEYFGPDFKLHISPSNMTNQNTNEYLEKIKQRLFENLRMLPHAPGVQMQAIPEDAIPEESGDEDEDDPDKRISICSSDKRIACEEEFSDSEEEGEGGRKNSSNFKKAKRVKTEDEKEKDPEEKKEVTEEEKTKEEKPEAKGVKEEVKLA
smiles,measurement,setting,value
"CCc1nc2cc(F)c(/C=C/C(=O)NO)cc2c(=O)n1-c1ccccc1 [Compound 33, (E)-3-(2-ethyl-7-fluoro-4-oxo-3-phenyl-3,4-dihydroquinazolin-6-yl)-N-hydroxyacrylamide]",IC50,HDAC1,4.44 µM
same,HDAC6 selectivity (A)/(B),HDAC6; HDAC1 IC50 / HDAC6 IC50,134
same,IC50,HDAC6; read-out: HDAC6 IC50 (B),0.033 µM
same,Cmax,[1],2720 ng/mL
same,AUC,[1]; unit inferred,11000 ng·h/mL
same,neurite outgrowth,[2],significantly rescued the neurite outgrowth
same,tubulin hyperacetylation,[3],tubulin hyperacetylation
same,development of lung fibrosis,"[4]; prevention model, 30 mg/kg oral, 21 consecutive days, FIG. 5",markedly decreased the development of lung fibrosis
same,recovery from lung injury and pulmonary fibrosis post injury,[4]; treatment post injury,protective effect in pulmonary inflammatory response and pulmonary fibrosis
same,IL-6 level in the BALF,IL-6,suppressed IL-6 level in the BALF
same,fibrosis-related matrix activities,[5]; BioMAP readouts,"decreased Collagen III, MMP-9; increased Collagen IV; modulated MMP-1, Collagen I"
same,inflammation-related activities,[5]; BioMAP readouts,"decreased M-CSF, sIL-6, MCP-1; modulated IP-10, I-TAC"
same,myofibroblast activation-related activities,[5]; BioMAP readouts,"decreased αSMA, E-Cadherin, N-Cadherin"
same,tissue remodeling/wound healing activities,[5]; BioMAP readouts,"decreased EGFR, tPA, uPA; modulated sVEGF"
same,activities on cytokines contributing to fibrosis,[5]; compared with nintedanib,"marked activities in decreasing TNF-α, IL-1, IL-6, MMP-9, VEGF, and collagen I"
